Consider 21 compounds from PubChem BioAssay AID292 (DTP/NCI, 2004).

In the test the test system is B6C3F1 mice, ip Sarcoma M5076, median survival T/C. Description: NCI In Vivo Anticancer Drug Screen. Data for tumor model Sarcoma M5076 (intraperitoneal) in B6C3F1 mice. The settings on record: endpoint: median survival time, schedule: Q04DX004 (ip), higher = longer survival. The method, boiled down: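 The readout is a ratio of survival in drug-treated animals to survival in animals given vehicle alone, taken in mice bearing a transplanted tumour line.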

The mark [1] stands for this setting: dose: 50.0 mg/kg/injection, vehicle: Klucel (hydroxypropylcellulose) (HPC).
Where [2] appears, read: dose: 100.0 mg/kg/injection, vehicle: Klucel (hydroxypropylcellulose) (HPC).
The mark [3] stands for this setting: dose: 12.5 mg/kg/injection, vehicle: saline with Tween-80.
[4] abbreviates: dose: 50.0 mg/kg/injection, vehicle: saline with Tween-80.
Where [5] appears, read: dose: 100.0 mg/kg/injection, vehicle: saline with Tween-80.
[6] abbreviates: dose: 200.0 mg/kg/injection, vehicle: saline with Tween-80.
Setting [7] is: dose: 37.5 mg/kg/injection, vehicle: Klucel (hydroxypropylcellulose) (HPC).
[8] abbreviates: dose: 75.0 mg/kg/injection, vehicle: Klucel (hydroxypropylcellulose) (HPC).
Setting [9] is: dose: 150.0 mg/kg/injection, vehicle: Klucel (hydroxypropylcellulose) (HPC).
[10] abbreviates: dose: 300.0 mg/kg/injection, vehicle: Klucel (hydroxypropylcellulose) (HPC).
Where [11] appears, read: dose: 400.0 mg/kg/injection, vehicle: saline with Tween-80.
The mark [12] stands for this setting: dose: 25.0 mg/kg/injection, vehicle: Klucel (hydroxypropylcellulose) (HPC).
The mark [13] stands for this setting: dose: 200.0 mg/kg/injection, vehicle: Klucel (hydroxypropylcellulose) (HPC).
Where [14] appears, read: dose: 400.0 mg/kg/injection, vehicle: Klucel (hydroxypropylcellulose) (HPC).
Setting [15] is: dose: 37.5 mg/kg/injection, vehicle: saline with Tween-80.
Where [16] appears, read: dose: 75.0 mg/kg/injection, vehicle: saline with Tween-80.
Where [17] appears, read: dose: 150.0 mg/kg/injection, vehicle: saline with Tween-80.
Where [18] appears, read: dose: 300.0 mg/kg/injection, vehicle: saline with Tween-80.
[19] abbreviates: dose: 600.0 mg/kg/injection, vehicle: saline with Tween-80.

“And” between values parts separate entries of the source, which are not always exact repeats. Equal entries are not always repeated. Inconclusive results and toxic doses are left out.

For the compound `COc1ccc(N2CCCSC2=S)cc1`, the T/C is, setting by setting: (dose: 31.25 mg/kg/injection, vehicle: saline + Tween-80 + alcohol) 97 % of control; (dose: 62.5 mg/kg/injection, vehicle: saline + Tween-80 + alcohol) 91 % of control.
Regarding `ClCCCN1CCN(CCCl)CC1`, the T/C by setting is: (dose: 0.63 mg/kg/injection, vehicle: saline with Tween-80) 99 % of control; (dose: 1.25 mg/kg/injection, vehicle: saline with Tween-80) 118 % of control; (dose: 10.0 mg/kg/injection, vehicle: saline with Tween-80) 175 % of control; (dose: 20.0 mg/kg/injection, vehicle: saline with Tween-80) 94 % of control.
Take `N#CC1C(=O)NC(=S)NC1c1ccco1` (stereo unspecified): the T/C is, setting by setting: under setting [1], 98 % of control; under setting [2], 100 % of control.
Turning to `COC(=O)c1c(C(=O)OC)c2c(C)nn3ccc1n23`, the T/C runs as follows: under setting [3], 96 % of control; (dose: 25.0 mg/kg/injection, vehicle: saline with Tween-80) 97 % of control; under setting [4], 96 % of control; under setting [5], 104 % of control; under setting [6], 93 % of control.
With `C=Cc1cc(OC)c2c(c1)c(=O)oc1c2cc(OC)c2c(O)ccc(C3OC(C)C(O)C(C)(O)C3O)c21` (stereo unspecified), the T/C (dose: 10.0 mg/kg/injection, vehicle: DMSO) is 114 % of control; the T/C (dose: 20.0 mg/kg/injection, vehicle: DMSO) was 110 % of control; the T/C (dose: 40.0 mg/kg/injection, vehicle: DMSO) is 88 % of control; the T/C (dose: 80.0 mg/kg/injection, vehicle: DMSO) was 118 % of control; the T/C (dose: 160.0 mg/kg/injection, vehicle: DMSO) was 100 % of control.
Turning to `O=C(Nc1cccc2ccccc12)C1C(=O)C(=O)N(c2cccc3ccccc23)C1=O` (stereo unspecified), the T/C is 105 % of control under setting [7], 104 % of control under setting [8], 88 % of control under setting [9] and 91 % of control under setting [10].
As to `COC(=O)NC1C(C)OC(OC2C/C=C(/C)C3C=CC4C(OC5CC(OC6CC(OC7CC(O)C(O)C(C)O7)C(OC7CC(O)C(OC)C(C)O7)C(C)O6)C(O)C(C)O5)C(C)CC(C)C4C3(C)/C(O)=C3\C(=O)OC4(CC(C)C(CO)=CC4/C=C\2C)C3=O)CC1(C)[N+](=O)[O-]` (stereo unspecified), the T/C (dose: 12.5 mg/kg/injection, vehicle: water) was 97 % of control; the T/C (dose: 25.0 mg/kg/injection, vehicle: water) was 100 % of control; the T/C (dose: 50.0 mg/kg/injection, vehicle: water) was 94 % of control; the T/C (dose: 100.0 mg/kg/injection, vehicle: water) was 104 % of control; the T/C (dose: 200.0 mg/kg/injection, vehicle: water) was 111 % of control.
In the case of `O=C1CCC(=O)N1CO`, the T/C was 93 % of control under setting [4]; 101 % of control under setting [5]; 87 % of control under setting [6]; 100 % of control under setting [11]; 97 % of control (dose: 800.0 mg/kg/injection, vehicle: saline with Tween-80).
Regarding `CCCCCCN1CCN(Cc2ccc(N(CC)CC)cc2)C(=O)C1=O`, the T/C is, setting by setting: under setting [12], 95 % of control; under setting [1], 107 % of control.
For `CC[C@](O)(C(=O)O)c1cc2n(c(=O)c1CO)Cc1cc3ccccc3nc1-2`, the T/C is 115 % of control (dose: 3.12 mg/kg/injection, vehicle: saline); 115 % of control and 123 % of control (dose: 6.25 mg/kg/injection, vehicle: saline); 119 % of control (dose: 12.5 mg/kg/injection, vehicle: saline); 123 % of control (dose: 25.0 mg/kg/injection, vehicle: saline); 114 % of control (dose: 50.0 mg/kg/injection, vehicle: saline).
Turning to `N#CC1C(=O)NC(=O)C(C#N)C1c1cccc(O)c1` (stereo unspecified), the T/C is 95 % of control under setting [1]; 102 % of control under setting [2]; 99 % of control under setting [13]; 95 % of control under setting [14]; 109 % of control (dose: 800.0 mg/kg/injection, vehicle: Klucel (hydroxypropylcellulose) (HPC)).
Consider `NC(C(=O)O)/C1=C/CCCCCC1` (stereo unspecified), for which the T/C by setting is: under setting [12], 100 % of control; under setting [1], 98 % of control; under setting [2], 100 % of control; under setting [13], 111 % of control; under setting [14], 103 % of control.
For `CC1=CC(C)(C)Nc2ccc(OC(=O)/C=C(C)/C=C/C=C(C)/C=C/C3=C(C)CCCC3(C)C)cc21`, the T/C reads like this: under setting [15], 96 % of control; under setting [16], 98 % of control; under setting [17], 98 % of control; under setting [18], 89 % of control; under setting [19], 89 % of control.
Consider `N#CC1C(=O)NC(=O)C(C#N)C1C(Cl)(Cl)Cl` (stereo unspecified), for which the T/C by setting is: under setting [1], 94 % of control; under setting [2], 95 % of control.
Turning to `CC(C)CC(NC(=O)CF)C(=O)O` (stereo unspecified), the T/C is 98 % of control (dose: 1.56 mg/kg/injection, vehicle: saline with Tween-80); 102 % of control (dose: 3.12 mg/kg/injection, vehicle: saline with Tween-80); 95 % of control (dose: 6.25 mg/kg/injection, vehicle: saline with Tween-80); 97 % of control under setting [3].
As for `CN(C)C(=O)SC1=C(c2c(Cl)cccc2Cl)C(=O)c2ccccc21`, the T/C is 97 % of control under setting [7]; 113 % of control under setting [8]; 104 % of control under setting [9]; 95 % of control under setting [10]; 95 % of control (dose: 1200.0 mg/kg/injection, vehicle: Klucel (hydroxypropylcellulose) (HPC)).
For the compound `CC[n+]1c([S-])nn(C)c1-c1cnccn1`, the T/C by setting is: under setting [15], 103 % of control; under setting [16], 107 % of control; under setting [17], 96 % of control; under setting [18], 112 % of control; under setting [19], 95 % of control.
As for `CCOC(=O)C(N)CSC(=O)NC` (stereo unspecified), the T/C is 105 % of control (dose: 130.0 mg/kg/injection, vehicle: saline); 111 % of control and 119 % of control (dose: 216.0 mg/kg/injection, vehicle: saline); 115 % of control and 122 % of control (dose: 360.0 mg/kg/injection, vehicle: saline).
Regarding `NC(=O)c1[nH]cnc1O`, the T/C is 102 % of control under setting [4]; 101 % of control and 105 % of control under setting [5]; 100 % of control and 105 % of control under setting [6]; 118 % of control under setting [11].
`Cc1nc2ccccc2c2nnc(SCC(=O)N(Cc3ccccc3)c3ccccc3)n12`: the T/C was 98 % of control under setting [12]; 115 % of control under setting [1]; 114 % of control under setting [2]; 104 % of control under setting [13]; 112 % of control under setting [14].
Consider `Nc1ccccc1Sc1cc(Cl)nnc1Cl`, for which the T/C was 97 % of control under setting [4], 98 % of control under setting [5], 102 % of control under setting [6] and 88 % of control under setting [11].
